Legend:
Assay in all cases: relative viability (nuclei count vs DMSO), 5 days (fraction); higher = more cells survive
[1] = compound: Cc1ccc(C(=O)N(CCCN)[C@@H](c2nc3cc(Cl)ccc3c(=O)n2Cc2ccccc2)C(C)C)cc1 [Ispinesib] + CC1(C)CCC(c2ccc(Cl)cc2)=C(CN2CCN(c3ccc(C(=O)NS(=O)(=O)c4ccc(N[C@H](CCN5CCOCC5)CSc5ccccc5)c(S(=O)(=O)C(F)(F)F)c4)cc3)CC2)C1 [Navitoclax] (partner 0.5 µM)
Method in brief: (§1)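 Relative viability divides the nuclei count in treated wells by that in vehicle wells. Lung cancer cell lines were seeded in 1536-well plates, dosed by pin tool the next day, and fixed and stained after 5 days in one step with final 0.05% Triton X-100, 1% formaldehyde and 1 ug/ml Hoechst. Dosing was a single drug or a fixed anchor-drug dose plus five library-drug doses (not always all listed) in √10 steps, and values are medians of duplicate plates imaged at 4×.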

[2] = compound: Cc1ccc(C(=O)N(CCCN)[C@@H](c2nc3cc(Cl)ccc3c(=O)n2Cc2ccccc2)C(C)C)cc1 [Ispinesib] + C[C@]1(O)C[C@@H](c2nc(-c3ccc4ccc(-c5ccccc5)nc4c3)c3c(N)nccn32)C1 [Linsitinib] (partner 1 µM)
Method in brief: as §1

[3] = compound: Cc1ccc(C(=O)N(CCCN)[C@@H](c2nc3cc(Cl)ccc3c(=O)n2Cc2ccccc2)C(C)C)cc1 [Ispinesib] + Cc1nc(Nc2ncc(C(=O)Nc3c(C)cccc3Cl)s2)cc(N2CCN(CCO)CC2)n1 [Dasatinib] (partner 0.075 µM)
Method in brief: as §1

[4] = compound: Cc1ccc(C(=O)N(CCCN)[C@@H](c2nc3cc(Cl)ccc3c(=O)n2Cc2ccccc2)C(C)C)cc1 [Ispinesib] + N=C(N)NC(=N)NCCc1ccccc1 [Phenformin] (partner 250 µM)
Method in brief: as §1

Cell Line | relative viability ([1]; first compound 0.001 µM) | relative viability ([1]; first compound 0.003162 µM) | relative viability ([1]; first compound 0.01 µM) | relative viability ([1]; first compound 0.03162 µM) | relative viability ([1]; first compound 0.1 µM) | relative viability ([2]; first compound 0.001 µM) | relative viability ([2]; first compound 0.003162 µM) | relative viability ([2]; first compound 0.01 µM) | relative viability ([2]; first compound 0.03162 µM) | relative viability ([2]; first compound 0.1 µM) | relative viability ([3]; first compound 0.001 µM) | relative viability ([3]; first compound 0.003162 µM) | relative viability ([3]; first compound 0.01 µM) | relative viability ([3]; first compound 0.03162 µM) | relative viability ([3]; first compound 0.1 µM) | relative viability ([4]; first compound 0.001 µM) | relative viability ([4]; first compound 0.003162 µM) | relative viability ([4]; first compound 0.01 µM) | relative viability ([4]; first compound 0.03162 µM) | relative viability ([4]; first compound 0.1 µM)
RERF-LC-KJ | 1.17 | 0.997 | 1.01 | 0.74 | 0.369 | 1.01 | 0.855 | 1.02 | 0.819 | 0.244 | 0.835 | 0.697 | 0.448 | 0.281 | 0.391 | 0.422 | 0.365 | 0.33 | 0.217 | 0.253
NCI-H441 | 0.764 | 0.477 | 0.587 | 0.238 | 0.218 | 0.465 | 0.771 | 0.346 | 0.163 | 0.173 | 0.713 | 0.634 | 0.453 | 0.293 | 0.266 | 0.977 | 0.823 | 0.84 | 0.247 | 0.301
PC-14 | 1.13 | 1.14 | 1.22 | 0.43 | 0.104 | 1.08 | 1.13 | 1.1 | 0.862 | 0.17 | 0.221 | 0.188 | 0.0739 | 0.0649 | 0.133 | 0.607 | 0.755 | 0.338 | 0.122 | 0.0821
NCI-H2009 | 1.28 | 1.23 | 1.32 | 0.678 | 0.374 | 1.28 | 1.18 | 1.29 | 0.957 | 0.475 | 0.264 | 0.325 | 0.271 | 0.142 | 0.144 | 0.519 | 0.512 | 0.451 | 0.312 | 0.186
NCI-H1395 | 1.32 | 1.1 | 1.16 | 0.553 | 0.326 | 1.1 | 1.04 | 0.966 | 0.407 | 0.436 | 0.432 | 0.419 | 0.713 | 0.354 | 0.333 | 0.491 | 0.487 | 0.514 | 0.354 | 0.292
NCI-H1437 | 1.28 | 1.1 | 1.43 | 1.06 | 0.295 | 1.12 | 1.28 | 1.54 | 0.995 | 0.303 | 0.45 | 0.512 | 0.395 | 0.35 | 0.166 | 0.326 | 0.335 | 0.371 | 0.251 | 0.189
NCI-H647 | 1.22 | 0.978 | 1.41 | 0.461 | 0.0986 | 1.2 | 1.26 | 0.949 | 0.607 | 0.144 | 0.176 | 0.173 | 0.122 | 0.0516 | 0.0877 | 0.609 | 0.476 | 0.52 | 0.0907 | 0.126
NCI-H1793 | 0.464 | 0.729 | 0.382 | 0.394 | 0.405 | 0.866 | 1.02 | 0.961 | 0.707 | 0.562 | 0.361 | 0.412 | 0.451 | 0.334 | 0.141 | 0.375 | 0.357 | 0.448 | 0.278 | 0.133

Reference: the supplement of paper PMC10307832
